Laboratory results taken from patent US20240376555A1, “TNRA MODIFICATION-SENSITIVE CODON TRANSLATION ASSAY COMPRISING LUMINESCENCE-BASED REPORTER SYSTEM” (priority 2021, published 2024).
Entries after “also recorded” stand apart in the source; their conditions may differ.

What was measured:
U34 enzymes [1] = experiment: Dual luciferase (NanoLuc/Firefly) tRNA modification-sensitive codon translation assay in A549 cells; assay type: cell-based; details: A549 human lung cells; time and concentration series; six U34 codon (xAA) repeats upstream of NanoLuc, xAG upstream of FireflyLuc; FIG. 1g-h
Protocol: (§1) In the preferred embodiment, the luminescence-based reporter system is the Nano-Glo® Dual-Luciferase® Reporter (NanoDLR™) Assay System commercially available from Promega. The medium may be removed and 40 microliters of complete cell culture medium may be added. The plate may be equilibrated at room temperature for 15 min. 40 microliters of ONE-Glo™ EX Reagent may be added for each well. The plates may be mixed and shaked and protected from light for 10 minutes. Then the luminescence may be read. 40 microliters of NanoDLR™ Stop and GloR Reagent may be freshly prepared and added to each well. The plates may be mixed and shaked and protected from light for 10 minutes. The luminescence may be read by any luminescence reader, preferably. The luminescence may be analyzed by calculating the Nanoluc/Firefly ratio.
(§2) Cells (MDA-MB231, M395 or A549) were stably transduced by the lentiviral system (pLV-Puro-hPGK) and 1:3 Mirus transfecting agent [Close et al, Mol Cell 2006].
(§3) Cells were culture in a suitable culture system in the presence of the candidate tRNA modification modulator.
(§4) Signals were detected by any luminescence reader, for example the TECAN Infinite M2000 Pro. Read time can be between 1 and 3 seconds with automatic attenuation.
(§5) No effect was seen using a construct lacking the codon repetitions (FIG. 1e). […]

U34 enzymes [2] = experiment: Dual luciferase (NanoLuc/Firefly) tRNA modification-sensitive codon translation assay in M395 cells; assay type: cell-based; details: M395 human primary melanoma cells; 250 nM for 24 hours; six U34 codon (xAA) repeats upstream of NanoLuc, xAG upstream of FireflyLuc; FIG. 1f
Protocol: as §1, §2, §3, §4, §5

Compound	luciferase specific signal (U34 enzymes [1])	luciferase specific ratio (NanoLuc/Firefly) (U34 enzymes [2])
Cn1c(=O)n(-c2ccc(C(C)(C)C#N)cc2)c2c3cc(-c4cnc5ccccc5c4)ccc3ncc21 [NVP-BEZ235]	decreased luciferase specific signal in a time and concentration-dependent manner; also recorded: decreased luciferase specific signal in a time and concentration dependent manner	–
insulin	–	increased luciferase specific ratio
CC(C)n1nc(-c2cc3cc(O)ccc3[nH]2)c2c(N)ncnc21 [PP242]	decreased luciferase specific signal in a time and concentration-dependent manner; also recorded: decreased luciferase specific signal in a time and concentration dependent manner	–
